Measured values reported in patent publication US5424204A, “Method for stabilizing glucose 6-phosphate dehydrogenase with hydroxylamines, aldehyde scavengers, dimethylthiocarbamoyl chloride or 2-(2-aminoethylamino) ethanol” (Kyowa Medex Co., Ltd., priority 1993, dated 1995).
Structures can show the parent of a compound that is named as a salt.

System: glucose 6-phosphate dehydrogenase
Experiment: Stabilization of glucose 6-phosphate dehydrogenase in a reagent for measuring the activity of creatine kinase (residual activity after storage)
Type: biochemical
Settings: 10 mM additive in reagent solution 1 (pH 6.6), activity immediately after preparation = 100%; for Residual activity after 3 months (%): stored at 10° C. for 3 months; for Residual Activity after 12 months (%): stored at 10° C. for 12 months

Row | SMILES | Residual activity after 3 months (%) | Residual Activity after 12 months (%)
1 | Cl.NO [Compound I-1, hydroxylamine hydrochloride] | 100.2 | 85.9
2 | NO.NO.O=S(=O)(O)O [Compound I-2, hydroxylamine sulfate] | 99.8 | 88.7
3 | NO.O=C(O)C(=O)O [Compound I-3, hydroxylamine oxalate] | 98.2 | 89.2
4 | Cl.NOCC(=O)O [Compound I-4, carboxymethoxylamine hydrochloride] | 99.9 | 88.9
5 | Cl.NOCc1ccccc1 [Compound I-5, O-benzylhydroxylamine hydrochloride] | 96.8 | 78.9
6 | O=C(c1ccccc1)N(O)c1ccccc1 [Compound I-6, N-benzoyl-N-phenylhydroxylamine] | 80.5 | 30.3
7 | Cc1ccccc1N(O)C(=O)c1ccccc1 [Compound I-7, N-benzoyl-N-(2-methylphenyl)hydroxylamine] | 81.5 | 25.6
8 | O=C(C=Cc1ccccc1)N(O)c1ccccc1 [Compound I-8, N-cinnamoyl-N-phenylhydroxylamine] | 90.4 | 44.5
9 | CNO [Compound I-9, N-methylhydroxylamine] | 100.1 | 80.3
10 | CON [Compound I-10, O-methylhydroxylamine] | 99.7 | 82.3
11 | Cc1cccc(N(O)C(=O)C=Cc2ccccc2)c1C [Compound I-11, N-cinnamoyl-N-2,3-xylylhydroxylamine] | 79.6 | 23.6
12 | CC(C)(C)NO [Compound I-12, N-(tert-butyl)hydroxylamine] | 75.5 | 22.2
13 | Cl.ONC1CCCCC1 [Compound I-13, N-cyclohexylhydroxylamine hydrochloride] | 92.1 | 80.2
14 | NNC(=O)c1ccccc1 [II-1, benzoylhydrazine] | 100.1 | 87.6
15 | NNC(=O)c1cccnc1 [II-4, nicotinic acid hydrazide] | 70.3 | 38.5
16 | NC(=S)C(N)=S [II-17, dithiooxyamide] | 75.2 | 32.3
17 | CN(C)C(=S)Cl [III, dimethylthiocarbamoyl chloride] | 80.3 | 43.2
18 | NCCNCCO [IV, 2-(2-aminoethylamino) ethanol] | 98.7 | 81.1

Further lines, results first:

Row | Residual activity after 3 months (%) | Residual Activity after 12 months (%) | SMILES
19 | 88.5 | 65.2 | NNC(=O)C(=O)NN [II-3, oxalyldihydrazide]
20 | 75.4 | 28.3 | CCOC(=O)CNN [II-5, ethylhydrazinoaceate hydrochloride]
21 | 89.2 | 58.5 | Br.NNC1=NCCN1 [II-6, 2-hydrazino-2-imidazoline hydrobromide]
22 | 89.7 | 60.3 | NNC(=O)c1cc2ccccc2cc1O [II-7, 3-hydroxy-2-naphthoenic acid hydrazide]
23 | 99.8 | 86.5 | COC(=O)NN [II-8, methyl carbazate]
24 | 82.3 | 45.6 | CC(=O)NNC(N)=S [II-9, 1-acetylthiosemicarbazide]
25 | 102.2 | 88.3 | CCOC(=O)NN [II-12, ethyl carbazate]
26 | 90.2 | 62.1 | CCNC(=S)NN [II-13, 4-ethyl-3-thiosemicarbazide]
27 | 99.9 | 86.5 | NNC(=O)Nc1ccccc1 [II-14, 4-phenylsemicarbazide]
28 | 65.8 | 20.1 | CC(C)NNC(=O)c1ccncc1 [II-15, iproniazide]
29 | 79.8 | 41.5 | CC(C)=NNC(N)=S [II-16, acetone thiosemicarbazone]
